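Where inhibition never reached the appropriate level, the endpoint shown equals the highest concentration tested. Otherwise, values were interpolated linearly from a five-concentration, 48-hour dose response in 96-well plates. GI50 marks 50% less growth.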 Activity calls are given as the source filed them. Cut-off read from the data, not from the text of the source: active = GI50 up to about 1.1 µM and inactive = higher.
What was measured:
Test in all cases: growth of human tumour cells (NCI), 48 h
NCI-H460 = system: NCI-H460
UACC-257 = system: UACC-257
KM12 = system: KM12
COLO 205 = system: COLO 205
SNB-19 = system: SNB-19
HOP-92 = system: HOP-92
IGROV-1 = system: IGROV-1
HCT-116 = system: HCT-116
SN12C = system: SN12C
PC-3 = system: PC-3
MCF7 = system: MCF7
A498 = system: A498
Hs-578T = system: Hs-578T
HOP-62 = system: HOP-62
SK-MEL-28 = system: SK-MEL-28
LOX IMVI = system: LOX IMVI
OVCAR-8 = system: OVCAR-8
NCI/ADR-RES = system: NCI/ADR-RES
CCRF-CEM = system: CCRF-CEM

Measured: GI50

Cc1csc2nc(-c3cc([N+](=O)[O-])c(Cl)cc3Cl)c(/C=N/N=C(N)N)n12
inactive: NCI-H460 20.2 µM | UACC-257 17.8 µM | KM12 14.4 µM | COLO 205 17.9 µM | SNB-19 19.8 µM | HOP-92 14.4 µM | IGROV-1 16.4 µM | HCT-116 16.7 µM | SN12C 16.2 µM | PC-3 16.4 µM | MCF7 15.3 µM | A498 19.6 µM | Hs-578T 15.4 µM | HOP-62 16.3 µM | SK-MEL-28 16.4 µM | LOX IMVI 16.7 µM | OVCAR-8 19.2 µM | NCI/ADR-RES 15.3 µM | CCRF-CEM 27.2 µM

O=c1[nH]c2ccc(CC(=S)N3CCN(c4ccccc4)CC3)cc2o1
inactive: NCI-H460 > 100 µM | UACC-257 > 100 µM | KM12 63.4 µM | COLO 205 97.7 µM | SNB-19 > 100 µM | HOP-92 84.9 µM | IGROV-1 > 90.8 µM | HCT-116 > 80.5 µM | SN12C > 100 µM | PC-3 > 100 µM | MCF7 > 100 µM | A498 > 30 µM | Hs-578T > 54.2 µM | HOP-62 > 88.5 µM | SK-MEL-28 > 100 µM | LOX IMVI > 100 µM | OVCAR-8 > 79.1 µM | NCI/ADR-RES > 44.5 µM | CCRF-CEM 71.3 µM

C#CC(O)/C=C/C(O)CCCC(O)CC#CC(O)C#CCCCCC(O)/C=C/CCCCCC(=O)CCCCCCCCCCCCCC(O)C(O)C#CC(=O)O (configuration not stated)
inactive: NCI-H460 > 25 µM | UACC-257 > 25 µM | KM12 > 25 µM | COLO 205 > 25 µM | SNB-19 > 25 µM | HOP-92 > 25 µM | IGROV-1 4.13 µM | HCT-116 > 25 µM | SN12C > 25 µM | PC-3 > 25 µM | MCF7 > 25 µM | A498 > 25 µM | Hs-578T > 25 µM | HOP-62 > 25 µM | SK-MEL-28 > 25 µM | LOX IMVI 4.6 µM | OVCAR-8 > 25 µM | NCI/ADR-RES > 25 µM | CCRF-CEM 6.81 µM

COc1cc2c(c(OC)c1)C(=O)O[C@H](C)CCCC/C=C/C2
inactive: NCI-H460 11.1 µM | UACC-257 10.9 µM | KM12 9.35 µM | COLO 205 10.9 µM | SNB-19 16.2 µM | HOP-92 9.77 µM | IGROV-1 9.06 µM | HCT-116 8.61 µM | SN12C 7.14 µM | PC-3 7.78 µM | MCF7 11.6 µM | A498 39.7 µM | Hs-578T 20.9 µM | HOP-62 8.15 µM | SK-MEL-28 23.2 µM | LOX IMVI 4.73 µM | OVCAR-8 33.3 µM | NCI/ADR-RES 29.2 µM | CCRF-CEM 2.26 µM

Nc1ncnc2c1ccn2CC=C(CO)CO
inactive: NCI-H460 > 100 µM | UACC-257 > 100 µM | KM12 > 100 µM | SNB-19 > 100 µM | HOP-92 > 100 µM | IGROV-1 > 100 µM | HCT-116 > 100 µM | SN12C > 100 µM | PC-3 > 100 µM | MCF7 > 100 µM | A498 > 100 µM | Hs-578T > 100 µM | HOP-62 > 100 µM | SK-MEL-28 > 100 µM | LOX IMVI > 100 µM | OVCAR-8 > 100 µM | NCI/ADR-RES > 100 µM | CCRF-CEM > 100 µM

Cc1cc(C)nc(NS(=O)(=O)c2ccc(Nc3c4ccccc4nc4c(C(=O)NCCCN(CCO)CCO)cccc34)cc2)n1
inactive: NCI-H460 7.48 µM | UACC-257 > 100 µM | KM12 12.6 µM | COLO 205 14 µM | SNB-19 9.29 µM | HOP-92 5.18 µM | IGROV-1 15.5 µM | SN12C 8.22 µM | PC-3 14.9 µM | MCF7 5.89 µM | A498 54.3 µM | Hs-578T 6.67 µM | HOP-62 17.1 µM | SK-MEL-28 14.2 µM | LOX IMVI 10.3 µM | OVCAR-8 17.3 µM | NCI/ADR-RES > 100 µM | CCRF-CEM 7.66 µM

C/C(C=O)=N\Nc1cc(C)c2ccccc2n1
inactive: UACC-257 17.6 µM | KM12 15 µM | COLO 205 16.4 µM | SNB-19 19.1 µM | HOP-92 15.1 µM | IGROV-1 16.9 µM | HCT-116 14.5 µM | SN12C 16.3 µM | PC-3 13.7 µM | MCF7 12.5 µM | A498 15.2 µM | Hs-578T 17.3 µM | HOP-62 11.2 µM | SK-MEL-28 16.3 µM | LOX IMVI 13.2 µM | OVCAR-8 17.5 µM | NCI/ADR-RES 15.7 µM | CCRF-CEM 12 µM

CNC(=O)N1CN(c2ccccc2)C2(CCN(CCCC3(c4ccc(F)cc4)OCCO3)CC2)C1=O
inactive: NCI-H460 > 100 µM | KM12 > 100 µM | COLO 205 > 100 µM | SNB-19 > 100 µM | HOP-92 > 100 µM | IGROV-1 > 100 µM | HCT-116 > 100 µM | SN12C > 100 µM | PC-3 > 100 µM | MCF7 > 100 µM | A498 > 100 µM | Hs-578T > 100 µM | HOP-62 > 100 µM | SK-MEL-28 > 100 µM | LOX IMVI > 100 µM | NCI/ADR-RES > 100 µM | CCRF-CEM > 100 µM
